Reference: patent US9353101B2 (Merck Sharp & Dohme Corp., priority 2012, dated 2016)

Assays:
CETP [1] = target: T1, CETP (Homo sapiens (Human), UniProt P11597); experiment: Scintillation Proximity Assay (SPA) for CETP Activity; format: biochemical; settings: 15 nM CETP, biotinylated LDL, 3H-cholesterol ester HDL; read-out: SPA IC50 (CETP Inhibition)
Experimental: Protocol: Scintillation Proximity Assay (SPA) for CETP Activity
First, low density lipoprotein (LDL) (Meridian) was biotinylated by incubating LDL with biotin for 1 hour on ice, after which it was dialyzed to remove free biotin. Then compounds at varying concentrations were incubated with 15 nM CETP (reagent production group, In Vitro Pharmacology, MRL Rahway) and 50 ug/ml of the biotinylated LDL in 50 mM HEPES, 150 mM NaCl, pH 7.4, for 1 hour at 37° C. The reaction was started by adding ^3H-cholesterol ester high density lipoprotein (HDL) (American Radiochemicals Corp) at a concentration of ˜0.6 nM. The reaction proceeded for 2 hours at 37° C., after which time it was quenched by the addition of 12% acetic acid. PVT streptavadin-coated scintillation proximity beads, which had been brought to room temperature, were then added at a concentration of 4 mg/ml. The assay was then mixed and counted after one half hour in a Microbeta plate reader.
Target sequence in this assay (P11597 18-493): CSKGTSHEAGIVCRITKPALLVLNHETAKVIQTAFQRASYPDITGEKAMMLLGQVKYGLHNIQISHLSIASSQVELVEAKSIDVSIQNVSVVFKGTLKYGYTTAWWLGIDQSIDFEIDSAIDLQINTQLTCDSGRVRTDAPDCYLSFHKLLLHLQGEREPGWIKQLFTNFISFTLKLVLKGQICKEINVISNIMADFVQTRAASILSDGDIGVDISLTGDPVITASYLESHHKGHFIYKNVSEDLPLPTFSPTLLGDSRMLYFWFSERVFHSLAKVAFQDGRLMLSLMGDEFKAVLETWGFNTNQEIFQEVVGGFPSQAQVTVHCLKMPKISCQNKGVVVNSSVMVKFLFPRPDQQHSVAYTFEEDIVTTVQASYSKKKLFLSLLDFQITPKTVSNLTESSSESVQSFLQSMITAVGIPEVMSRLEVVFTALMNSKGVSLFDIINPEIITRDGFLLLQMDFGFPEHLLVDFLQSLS

CETP [2] = target: T1, CETP; experiment: In vitro radioactive assay of CETP-catalyzed CE and TG transfer (RTA assay), 95% human serum; format: biochemical; settings: RTA assay in 95% human serum; read-out: RTA IC50 (CETP Inhibition)
Target sequence in this assay (P11597 18-493 limits assumed): as the sequence (P11597 18-493) above

[3] = cited from earlier work
[4] = patients given torcetrapib and atorvastatin concomitantly compared with atorvastatin alone; cited from earlier work
[5] = patients, anacetrapib with baseline statin therapy compared with just a statin

| SMILES | IC50 (CETP [1]) | other results |
| --- | --- | --- |
| COc1ncc(C(C)C)cc1-c1cnc(N2CC(F)C2)nc1CN1C(=O)O[C@H](c2cc(C(F)(F)F)cc(C(F)(F)F)c2)[C@@H]1C [Example 2, (4S,5R)-5-[3,5-Bis(trifluoromethyl)phenyl]-3-{[2-(3-fluoroazetidin-1-yl)-5-(5-isopropyl-2-methoxypyridin-3-yl)pyrimidin-4-yl]methyl}-4-methyl-1,3-oxazolidin-2-one] | 11 nM |  |
| COc1ncc(-c2cnn(C)c2)cc1-c1cnc(N2CC(F)C2)nc1CN1C(=O)O[C@H](c2cc(C(F)(F)F)cc(C(F)(F)F)c2)[C@@H]1C [Example 4] | 137 nM |  |
| COc1ncc(C2CC2)cc1-c1cnc(N2CC(F)C2)nc1CN1C(=O)O[C@H](c2cc(C(F)(F)F)cc(C(F)(F)F)c2)[C@@H]1C [Example 5] | 34 nM |  |
| COc1ncc(Cl)cc1-c1cnc(N2CCOCC2)nc1CN1C(=O)O[C@H](c2cc(C(F)(F)F)cc(C(F)(F)F)c2)[C@@H]1C [Example 11, (4S,5R)-5-[3,5-Bis(trifluoromethyl)phenyl]-3-{[5-(5-chloro-2-methoxypyridin-3-yl)-2-(morpholin-4-yl)pyrimidin-4-yl]methyl}-4-methyl-1,3-oxazolidin-2-one] | 671 nM |  |
| COc1ncc(C2CC2)cc1-c1cnc(N2CCOCC2)nc1CN1C(=O)O[C@H](c2cc(C(F)(F)F)cc(C(F)(F)F)c2)[C@@H]1C [Example 12, (4S,5R)-5-(3,5-Bis(trifluoromethyl)phenyl)-3-((5-(5-cyclopropyl-2-methoxypyridin-3-yl)-2-morpholinopyrimidin-4-yl)methyl)-4-methyloxazolidin-2-one] | 530 nM |  |
| COc1ncc(Cl)cc1-c1cnc(N2CC(F)C2)nc1CN1C(=O)O[C@H](c2cc(F)cc(F)c2)[C@@H]1C [Example 13, (4S,5R)-3-{[5-(5-Chloro-2-methoxypyridin-3-yl)-2-(3-fluoroazetidin-1-yl)pyrimidin-4-yl]methyl}-5-(3,5-difluorophenyl)-4-methyl-1,3-oxazolidin-2-one] | 728 nM |  |
| COc1ncc(C(C)C)cc1-c1cnc(N2CCOCC2)nc1CN1C(=O)O[C@H](c2cc(C(F)(F)F)cc(C(F)(F)F)c2)[C@@H]1C [Example 15, (4S,5R)-5-[3,5-Bis(trifluoromethyl)phenyl]-3-{[5-(5-isopropyl-2-methoxypyridin-3-yl)-2-(morpholin-4-yl)pyrimidin-4-yl]methyl}-4-methyl-1,3-oxazolidin-2-one] | 229 nM |  |
| Cc1noc(C)c1-c1cnc(N2CCC2)nc1CN1C(=O)O[C@H](c2cc(C(F)(F)F)cc(C(F)(F)F)c2)[C@@H]1C [Example 64, (4S,5R)-3-{[2-(azetidin-1-yl)-5-(3,5-dimethylisoxazol-4-yl)pyrimidin-4-yl]methyl}-5-[3,5-bis(trifluoromethyl)phenyl]-4-methyl-1,3-oxazolidin-2-one] |  | IC50 (CETP [2]): 271 nM |
| COc1cc(F)c(C(C)C)cc1-c1ccc(C(F)(F)F)cc1CN1C(=O)O[C@H](c2cc(C(F)(F)F)cc(C(F)(F)F)c2)[C@@H]1C [anacetrapib] |  | increase in mortality ([3]; patients treated with anacetrapib): unlikely; decrease of LDL-C [3, 5]: 40%; increase of HDL-C [3, 5]: 138% |
| CCOC(=O)N1c2ccc(C(F)(F)F)cc2[C@@H](N(Cc2cc(C(F)(F)F)cc(C(F)(F)F)c2)C(=O)OC)C[C@H]1CC [torcetrapib] |  | incidence of mortality [4]: higher incidence of mortality |
